Test results from US20050043333A1, “Quinazolinone derivative” (Fujisawa Pharmaceutical Co., Ltd, priority 2001, published 2005).

Biological target: recombinant human PARP (Homo sapiens, UniProt P09874)
Assay: PARP Inhibitory Activity (In Vitro Assay)
Format: biochemical
Settings: 32P-NAD, 0.05 mM NAD, activated DNA, 15 minutes at room temperature
Experimental: Incubation was for 15 minutes at a room temperature and the reaction was stopped by the addition of 200 μl of ice-cold 20% trichloroacetic acid followed by rapid filtration through GF/B filters. The filters were treated with scintillation fluid and acid-insoluble counts were measured for quantification of unit activity.

recombinant human PARP, sequence (P09874 whole entry): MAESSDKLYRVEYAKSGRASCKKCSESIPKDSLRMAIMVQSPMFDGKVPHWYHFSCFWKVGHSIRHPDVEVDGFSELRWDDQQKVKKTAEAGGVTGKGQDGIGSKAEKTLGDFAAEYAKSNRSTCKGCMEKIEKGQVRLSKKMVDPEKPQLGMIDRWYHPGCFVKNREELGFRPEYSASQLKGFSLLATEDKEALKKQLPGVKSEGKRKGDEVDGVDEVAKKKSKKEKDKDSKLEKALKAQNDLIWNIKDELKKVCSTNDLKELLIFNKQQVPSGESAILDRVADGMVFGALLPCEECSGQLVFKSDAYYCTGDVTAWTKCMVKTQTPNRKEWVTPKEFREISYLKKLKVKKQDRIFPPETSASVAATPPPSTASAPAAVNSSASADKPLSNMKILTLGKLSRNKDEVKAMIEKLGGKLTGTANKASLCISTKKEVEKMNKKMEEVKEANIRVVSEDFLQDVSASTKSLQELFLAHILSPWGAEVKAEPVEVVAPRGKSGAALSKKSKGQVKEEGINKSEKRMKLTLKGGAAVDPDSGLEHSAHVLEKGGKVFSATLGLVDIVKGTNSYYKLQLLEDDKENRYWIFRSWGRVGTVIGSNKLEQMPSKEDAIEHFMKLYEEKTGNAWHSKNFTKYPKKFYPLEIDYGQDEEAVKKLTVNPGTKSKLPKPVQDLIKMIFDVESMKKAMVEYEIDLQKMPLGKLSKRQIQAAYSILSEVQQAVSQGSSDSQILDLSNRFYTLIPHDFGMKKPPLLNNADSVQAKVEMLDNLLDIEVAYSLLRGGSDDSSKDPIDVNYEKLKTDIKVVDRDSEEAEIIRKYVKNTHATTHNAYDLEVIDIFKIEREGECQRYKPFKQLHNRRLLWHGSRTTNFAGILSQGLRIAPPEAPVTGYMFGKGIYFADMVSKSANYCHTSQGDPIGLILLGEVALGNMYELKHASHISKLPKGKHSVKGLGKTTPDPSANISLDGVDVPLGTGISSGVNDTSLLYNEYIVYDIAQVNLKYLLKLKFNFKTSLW

Compound: O=c1[nH]c(C2=CC(N3CC=C(c4ccccc4)CC3)CC2)nc2ccccc12 (stereo not shown) [Compound A, 2-[3-(4-phenyl-3,6-dihydro-1(2H)-pyridinyl)-1-cyclopenten-1-y 1]-4(3H)-quinazolinone]
- IC50: < 0.5 µM
